This note sets out measurements from publication PMC5656322, “BAK1 is involved in AtRALF1-induced inhibition of root cell expansion” (PLoS Genetics, 2017).

Where no end group is shown, it is not given here.

For experiment [1], the system named is Arabidopsis seedlings, rhizosphere. The experiment can be described thus: Rhizosphere alkalinization, gel with pH indicator bromocresol purple. The experiment is classed as in vivo, Arabidopsis thaliana. Conditions: wild-type and bak1 seedlings, 10 μM, 30 min, pH 5.7. How it is done: To analyze the rhizosphere alkalinization, seedlings were grown in plates for 7 days. To avoid damage to the roots, the medium was solidified with 12 g l^-1 Phytagel. Seedlings were transferred to plates containing the pH indicator bromocresol purple (pH 5.7) as described previously and treated with 10 μM AtRALF1 or water. Images were captured 30 min after transfer onto the gel indicator. The experiments were repeated at least three times using independent biological replicates. The data shown are from one representative experiment.

Experiment [2] deals with intact Arabidopsis seedlings. The experiment can be described thus: Binding assay with acridinium-labeled AtRALF1, intact seedlings. On the set-up: species or system Arabidopsis thaliana. The conditions noted are these: for competition of acriAtRALF1 binding: 10-fold excess of unlabeled peptide. How it is done: (A) Whole seedlings (5 days old) were treated for 15 min with acriAtRALF1 (acriR1), acriR1 and an excess of unlabeled AtRALF34 (R34), RALF1(9–49) [(R-9-49)], or AtRALF1 (R1), as indicated. The values are the mean ± SD of two measurements (5 seedlings each). (B) Microsomal fractions from wild-type and bak1 mutants were incubated for 15 min with acriAtRALF1 (acriR1), with acriR1 and an excess of unlabeled RALF1(9–49) [(R-9-49)], or with AtRALF1 (R1), as indicated. The values are the mean ± SD of two measurements. The proportions of labeled: unlabeled proteins are shown in parentheses. Single and triple asterisks indicate P < 0.1 and P < 0.01 (Student’s t test).
Arabidopsis seedlings were grown for 5 days on vertical plates. Roots were homogenized in extraction buffer [300 mM sucrose, 100 mM Tris-HCl pH 7.5, 25 mM EDTA, 25 mM NaF, 1 mM Na2MoO4, 1 mM PMSF and protease inhibitor cocktail (Roche), adjusted to pH 6.2], and the homogenate was spun at 2,000 x g for 10 min at 4 °C. The supernatant was recovered and centrifuged at 100,000 x g for 50 min at 4 °C to precipitate the microsomal pellet. The pellet was resuspended in the extraction buffer plus 0.5% Triton-X. Seedlings or microsomal fractions were placed in 200 μl of medium and incubated with 7 nM acridinium-labeled peptide (acriAtRALF1 or acriAtRALF34) and different concentrations of AtRALF1, AtRALF34 or RALF1(9–49) for 15–20 min at 4 °C on a shaker. After incubation, the seedlings or microsomal fractions were washed three times with the same medium. Unless indicated otherwise, five entire seedlings and approximately 10 ng of microsomal fractions were used per treatment. The resulting luminescence emissions from the acridinium were measured using a microplate reader (Biotec ELx 800) at 2 s after injecting 50 μl of a solution containing 20 mM H2O2 in 0.1 M NaOH. These experiments were repeated at least three times using independent biological replicates. Duplicates were used for each concentration or treatment. The data shown are from one representative experiment.
Supplementary file pgen.1007053.s017.pdf: S17 Fig Analyses of acridinium-labeled AtRALF1 (acriAtRALF1) and binding of acriAtRALF1 in bak1-4 and fer4 mutants. (A) The Ca^2+ mobilization assay comparing the acriAtRALF1 activity with the AtRALF1 peptide. A total of 20 time-points per treatment were measured over 160 sec and summed. The results are the means ± SD of two measurements. (B) acriAtRALF1 binding in whole seedlings and only in roots of Arabidopsis. The roots were excised just before measurements. Ctr, seedlings treated with unlabeled AtRALF1. (C) Whole seedlings (5 days old) were treated for 20 min with acriAtRALF1 (acriR1), acriR1 and an excess of unlabeled AtRALF1 (R1), as indicated. The values are the mean ± SD of three measurements (5 seedlings each). The proportions of labeled: unlabeled proteins are shown in parentheses. Triple asterisks indicates P < 0.001 (Student’s t test). (PDF) Click here for additional data file.
Supplementary file pgen.1007053.s018.pdf: S18 Fig Binding of acridinium-labeled AtRALF1 and AtRALF34 to intact Arabidopsis seedlings. (A) bak7 seedlings (5 days old) were treated for 15 min with acriAtRALF1 (acriR1), acriR1 and an excess of unlabeled AtRALF1 (R1), as indicated. (B) bak1 seedlings (5 days old) were treated for 15 min with acriAtRALF34 (acriR34), acriR34 and an excess of unlabeled AtRALF34 (R34) or AtRALF1 (R1), as indicated. The proportions of labeled: unlabeled proteins are shown in parentheses. The values are the mean ± SD of two measurements (5 seedlings each). (PDF) Click here for additional data file.

In another experiment the test system is HA-BAK1-ECD. The experiment can be described thus: Co-immunoprecipitation in vitro. Format: binding, Arabidopsis thaliana. Conditions: 100 nM each protein, pH 6.3, overnight 4 °C, agarose anti-HA beads. How it is done:
The purified recombinant proteins AtRALF1 and HA-BAK1-ECD and the synthetic peptides RALF1(9–49) and RALF1(I6A) were combined in 200 μl of interaction buffer pH 6.3 (100 mM NaCl; 1 mM PMSF; 0.5%Triton X; 2.7 mM KCl; 8 mM NaH2PO4; 2 mM KH2PO4) overnight at 4 °C. A 100-nM concentration of each protein was used. This solution was incubated with agarose anti-HA beads (EZview Red Anti-HA Affinity Gel, Sigma) for 30 min at 4 °C to immunoprecipitate the proteins, washed 5 times with interaction buffer, eluted in 1X SDS sample buffer containing 10% β-mercaptoethanol and applied to an SDS-PAGE gel. The immunoprecipitated HA-BAK1-ECD and co-immunoprecipitated AtRALF1 were analyzed by protein blotting as described. The primary and secondary antibodies used to detect AtRALF1 were anti-AtRALF1 (1:10,000, Celula B, Immunology Laboratory, UFRGS, Brazil) and goat anti-rabbit HRP-conjugated secondary antibody (1: 10,000, BioRad), respectively.

As to “AtRALF1: root-specific RALF isoform in Arabidopsis; recombinant peptide hormone produced in E. coli (ATTKYISYQSLKRNSVPCSRRGASYYNCQNGAQANPYSRGCSKIARCRS; ends and bridges not checked; cysteine pairing not given here)”, in experiment [1], the “rhizosphere coloration (alkalinization)” value is “developed a purple coloration around the rhizosphere”. Besides, the “reduction of acriAtRALF1 binding” value is listed as “approximately 32%” in experiment [2] (bak1-1, 10-fold excess of AtRALF1); around 35% in experiment [2] (bak1-3, 10-fold excess of AtRALF1); around 33% in experiment [2] (bak1-4, 10-fold excess of AtRALF1); 24% in experiment [2] (wild-type seedlings, 10-fold excess of unlabeled AtRALF1); 59% in experiment [2] (wild-type seedlings, 100-fold excess of AtRALF1, printed "up to"). The “acriAtRALF1 binding reduced to” value in experiment [2] (bak1-1, 100- or 500-fold excess of AtRALF1) is recorded as 54%; in experiment [2] (bak1-3, 100- or 500-fold excess of AtRALF1), 63%; in experiment [2] (bak1-4, 100- or 500-fold excess of AtRALF1), 61%. The “share of AtRALF1 binding due to BAK1” value in experiment [2] (intact roots) is on record as “approximately 30%”. Moreover, the “further reduction of acriAtRALF1 binding” value in experiment [2] (wild-type seedlings, 500-fold excess of AtRALF1) is on record as “No further reduction was observed”. In addition, the “co-immunoprecipitation with HA-BAK1-ECD” value with HA-BAK1-ECD was “co-immunoprecipitated”.

For the substance “RALF1(9–49): inactive AtRALF1 peptide which has a deletion of the first 8 amino acids (QSLKRNSVPCSRRGASYYNCQNGAQANPYSRGCSKIARCRS; ends and bridges not checked; cysteine pairing not given here; UniProt Q9SRY3 80-120, looked up, fragment)”, the “competition of acriAtRALF1 binding” value in experiment [2] (bak1 mutants) is reported as “did not reduce the binding in the mutant backgrounds”; in experiment [2] (wild-type seedlings, 7 nM acriAtRALF1, 15 min, 4 °C), “could not be competed out”. For the same substance, the “co-immunoprecipitation with HA-BAK1-ECD” value in the experiment with HA-BAK1-ECD is reported as “did not co-immunoprecipitate with BAK1”.
